# Measurements as given in PMC9841523 (Journal of Medicinal Chemistry, 2022).
# Where two headings read alike, the source gives them in different places.
# How the values were obtained:
# PIP5K3 = target: T1, PIP5K3 (Homo sapiens, UniProt Q9Y2I7); experiment: KiNativ kinase panel; format: cell-based; details: 1 μM; MCF-7 Cells; ATP; GGKSGAAFYATEDDRFILK
# T1 construct: purchased ActivX Biosciences (KiNativ)
# MARK2, MARK3 = experiment: KiNativ kinase panel; format: cell-based, human; details: 1 μM, MCF-7 Cells, Lys2
# PITSLRE = experiment: KiNativ kinase panel; format: cell-based, human; details: 1 μM; MCF-7 Cells; Lys2; DLKTSNLLLSHAGILK
# ABL, ARG = experiment: KiNativ kinase panel; format: cell-based, human; details: 1 μM, MCF-7 Cells
# MET = target: T2, MET (Homo sapiens, UniProt P08581); experiment: KiNativ kinase panel; format: cell-based; details: 1 μM; MCF-7 Cells; Activation Loop; TGAKLPVK
# T2 construct: purchased ActivX Biosciences (KiNativ)
# PI3K-BETA = target: T3, PI3K-BETA (Homo sapiens, UniProt P42338); experiment: Nanosyn Lipid Kinase screen; format: biochemical
# T3 construct: purchased Carna lot # 12CBS-0359H
# Method: (§1) complex formation) controls.
# (§2) Nanosyn Lipid Kinase screen. Biochemical inhibition of lipid and related protein kinases was determined by Nanosyn (Santa Clara, CA). […]
# (§3) was determined by detection of fluorescent substrates using a microfluidic electrophoresis mobility shift assay with a LabChip3000 instrument (Caliper/PerkinElmer). Bodipy labeled phosphatidylinositol 4,5 phosphate (FL-PIP2) (Echelon Biosciences, Salt Lake City, Utah) with 1,2-dioctanoyl-sn-glycero-3-phospho-L-serine (PS) (Avanti Polar Lipids (Alabaster, AL) was […]
# (§4) of DNA-PK (Promega, Cat#V4106) on a peptide/dsDNA complex was assayed by detection of ADP formation using ADP-Glo (Promega). Kinase reactions were assembled in 384 well plates in a total volume of 20 µL as follows. For PI3K isoforms, the kinase protein was pre-diluted to 2x concentration in the assay buffer (50 mM HEPES, pH 7.5, 1 mM DTT, 5 mM MgCl 2, 0.01% […]
# (§5) well plate (10 µL per well). Compounds were serially pre-diluted in DMSO and added to the protein samples by acoustic dispensing (200 nL, Labcyte Echo). Concentration of DMSO was equalized to 1% in all samples. All test compounds were tested at 12 concentrations, 3x dilution intervals. The control samples (0%-inhibition in the absence of inhibitor, DMSO only) and 100%-inhibition (in the absence of enzyme) were assembled in replicates of four and were used to calculate %-inhibition in the presence of compounds. After 30 min of pre-incubation with compounds, the reactions were initiated by addition of 10 µL of FL-PIP2/PS substrate (10 µM […]
# (§6) (PI3Kα,β), 0.5 nM (PI3Kδ) and 10 nM (PI3Kγ). Final concentration of ATP was 100 µM.
# (§7) Following incubation, the reactions were quenched by addition of 50 µL of termination buffer (100 mM HEPES, pH 7.5,
# mTORC1 = target: T4, mTORC1 (Homo sapiens, UniProt P42345+P62942); experiment: Nanosyn Lipid Kinase screen; format: biochemical
# T4 construct: purchased BPS lot # 150818-A
# Method: as §1, §2, §3, §4, §5, §6, §7
# PI3K-ALPHA = target: T5, PI3K-ALPHA (Homo sapiens, UniProt P42336); experiment: Nanosyn Lipid Kinase screen; format: biochemical
# T5 construct: purchased BPS lot #110809
# Method: as §1, §2, §3, §4, §5, §6, §7
# PI3K-GAMMA = target: T6, PI3K-GAMMA (Homo sapiens, UniProt P48736); experiment: Nanosyn Lipid Kinase screen; format: biochemical
# T6 construct: purchased Thermo Fisher lot#1716438D
# Method: as §1, §2, §3, §4, §5, §6, §7
# PI3K-DELTA = target: T7, PI3K-DELTA (Homo sapiens, UniProt O00329); experiment: Nanosyn Lipid Kinase screen; format: biochemical
# T7 construct: purchased Carna lot#09CBS-1198D
# Method: as §1, §2, §3, §4, §5, §6, §7
# MAPKAPK2, MAPKAPK3 = experiment: KiNativ kinase panel; format: cell-based, human; details: 1 μM, MCF-7 Cells, Lys2
# LATS2 = target: T8, LATS2 (Homo sapiens, UniProt Q9NRM7); experiment: KiNativ kinase panel; format: cell-based; details: 1 μM, MCF-7 Cells
# T8 construct: endogenous in cells; host or cells: MCF7
# T8 sequence (Q9NRM7 1-1088): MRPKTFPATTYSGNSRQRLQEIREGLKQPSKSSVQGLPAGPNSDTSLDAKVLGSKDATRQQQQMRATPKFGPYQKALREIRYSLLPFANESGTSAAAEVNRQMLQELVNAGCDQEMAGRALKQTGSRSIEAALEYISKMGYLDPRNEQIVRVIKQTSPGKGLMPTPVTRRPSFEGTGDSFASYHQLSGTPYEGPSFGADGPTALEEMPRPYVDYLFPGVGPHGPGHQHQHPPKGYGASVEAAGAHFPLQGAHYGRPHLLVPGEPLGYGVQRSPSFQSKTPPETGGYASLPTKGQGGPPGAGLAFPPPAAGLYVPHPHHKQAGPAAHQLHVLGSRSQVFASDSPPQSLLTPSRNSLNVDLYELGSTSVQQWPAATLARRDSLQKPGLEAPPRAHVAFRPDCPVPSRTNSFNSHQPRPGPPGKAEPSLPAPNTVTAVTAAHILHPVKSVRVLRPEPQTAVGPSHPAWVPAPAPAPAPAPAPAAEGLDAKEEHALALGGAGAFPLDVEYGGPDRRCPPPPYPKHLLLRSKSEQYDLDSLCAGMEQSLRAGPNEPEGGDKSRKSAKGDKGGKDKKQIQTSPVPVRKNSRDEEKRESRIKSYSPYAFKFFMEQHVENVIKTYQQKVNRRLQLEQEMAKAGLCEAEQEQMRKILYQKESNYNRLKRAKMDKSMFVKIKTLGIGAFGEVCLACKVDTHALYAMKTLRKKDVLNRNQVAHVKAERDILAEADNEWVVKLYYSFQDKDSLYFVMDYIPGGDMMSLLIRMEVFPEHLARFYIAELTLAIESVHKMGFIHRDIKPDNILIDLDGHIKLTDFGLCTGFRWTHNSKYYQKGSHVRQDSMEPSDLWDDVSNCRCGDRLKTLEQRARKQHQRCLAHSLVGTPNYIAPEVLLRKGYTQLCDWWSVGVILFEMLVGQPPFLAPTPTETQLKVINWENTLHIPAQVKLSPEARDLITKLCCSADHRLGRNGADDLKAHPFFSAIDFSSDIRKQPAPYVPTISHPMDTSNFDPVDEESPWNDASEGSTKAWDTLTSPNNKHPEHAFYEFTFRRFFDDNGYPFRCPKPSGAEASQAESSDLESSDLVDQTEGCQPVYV
# KSR1, KSR2 = experiment: KiNativ kinase panel; format: cell-based, human; details: 1 μM, MCF-7 Cells, Activation Loop
# LOK = target: T9, LOK (Homo sapiens, UniProt O94804); experiment: KiNativ kinase panel; format: cell-based; details: 1 μM; MCF-7 Cells; Lys2; DLKAGNVLMTLEGDIR
# T9 construct: endogenous in cells; host or cells: MCF7
# T9 sequence (O94804 whole entry): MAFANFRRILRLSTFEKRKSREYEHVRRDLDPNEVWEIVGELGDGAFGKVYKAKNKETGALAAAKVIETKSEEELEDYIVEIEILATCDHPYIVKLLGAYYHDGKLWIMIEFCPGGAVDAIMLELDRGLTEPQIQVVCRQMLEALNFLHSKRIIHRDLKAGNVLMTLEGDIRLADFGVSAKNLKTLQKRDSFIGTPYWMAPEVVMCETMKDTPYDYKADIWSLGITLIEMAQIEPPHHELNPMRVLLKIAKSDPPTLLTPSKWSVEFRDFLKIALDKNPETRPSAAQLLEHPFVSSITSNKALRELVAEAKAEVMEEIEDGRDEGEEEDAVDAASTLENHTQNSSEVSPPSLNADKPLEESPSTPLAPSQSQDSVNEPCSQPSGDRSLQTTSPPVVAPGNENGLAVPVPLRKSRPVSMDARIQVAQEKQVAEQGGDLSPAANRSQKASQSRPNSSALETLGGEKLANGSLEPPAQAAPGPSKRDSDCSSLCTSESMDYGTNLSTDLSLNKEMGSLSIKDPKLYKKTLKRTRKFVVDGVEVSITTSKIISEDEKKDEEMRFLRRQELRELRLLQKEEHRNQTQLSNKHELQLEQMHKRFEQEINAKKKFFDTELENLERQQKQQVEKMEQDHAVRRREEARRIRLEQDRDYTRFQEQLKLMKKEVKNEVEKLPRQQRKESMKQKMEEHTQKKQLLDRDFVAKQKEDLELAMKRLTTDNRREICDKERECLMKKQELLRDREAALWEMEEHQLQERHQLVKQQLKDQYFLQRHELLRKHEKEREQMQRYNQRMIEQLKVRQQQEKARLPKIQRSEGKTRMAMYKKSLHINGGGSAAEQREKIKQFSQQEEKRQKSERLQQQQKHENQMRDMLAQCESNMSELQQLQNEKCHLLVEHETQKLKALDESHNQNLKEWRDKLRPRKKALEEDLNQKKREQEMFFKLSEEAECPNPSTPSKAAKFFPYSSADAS
# T2 sequence (P08581 25-1390): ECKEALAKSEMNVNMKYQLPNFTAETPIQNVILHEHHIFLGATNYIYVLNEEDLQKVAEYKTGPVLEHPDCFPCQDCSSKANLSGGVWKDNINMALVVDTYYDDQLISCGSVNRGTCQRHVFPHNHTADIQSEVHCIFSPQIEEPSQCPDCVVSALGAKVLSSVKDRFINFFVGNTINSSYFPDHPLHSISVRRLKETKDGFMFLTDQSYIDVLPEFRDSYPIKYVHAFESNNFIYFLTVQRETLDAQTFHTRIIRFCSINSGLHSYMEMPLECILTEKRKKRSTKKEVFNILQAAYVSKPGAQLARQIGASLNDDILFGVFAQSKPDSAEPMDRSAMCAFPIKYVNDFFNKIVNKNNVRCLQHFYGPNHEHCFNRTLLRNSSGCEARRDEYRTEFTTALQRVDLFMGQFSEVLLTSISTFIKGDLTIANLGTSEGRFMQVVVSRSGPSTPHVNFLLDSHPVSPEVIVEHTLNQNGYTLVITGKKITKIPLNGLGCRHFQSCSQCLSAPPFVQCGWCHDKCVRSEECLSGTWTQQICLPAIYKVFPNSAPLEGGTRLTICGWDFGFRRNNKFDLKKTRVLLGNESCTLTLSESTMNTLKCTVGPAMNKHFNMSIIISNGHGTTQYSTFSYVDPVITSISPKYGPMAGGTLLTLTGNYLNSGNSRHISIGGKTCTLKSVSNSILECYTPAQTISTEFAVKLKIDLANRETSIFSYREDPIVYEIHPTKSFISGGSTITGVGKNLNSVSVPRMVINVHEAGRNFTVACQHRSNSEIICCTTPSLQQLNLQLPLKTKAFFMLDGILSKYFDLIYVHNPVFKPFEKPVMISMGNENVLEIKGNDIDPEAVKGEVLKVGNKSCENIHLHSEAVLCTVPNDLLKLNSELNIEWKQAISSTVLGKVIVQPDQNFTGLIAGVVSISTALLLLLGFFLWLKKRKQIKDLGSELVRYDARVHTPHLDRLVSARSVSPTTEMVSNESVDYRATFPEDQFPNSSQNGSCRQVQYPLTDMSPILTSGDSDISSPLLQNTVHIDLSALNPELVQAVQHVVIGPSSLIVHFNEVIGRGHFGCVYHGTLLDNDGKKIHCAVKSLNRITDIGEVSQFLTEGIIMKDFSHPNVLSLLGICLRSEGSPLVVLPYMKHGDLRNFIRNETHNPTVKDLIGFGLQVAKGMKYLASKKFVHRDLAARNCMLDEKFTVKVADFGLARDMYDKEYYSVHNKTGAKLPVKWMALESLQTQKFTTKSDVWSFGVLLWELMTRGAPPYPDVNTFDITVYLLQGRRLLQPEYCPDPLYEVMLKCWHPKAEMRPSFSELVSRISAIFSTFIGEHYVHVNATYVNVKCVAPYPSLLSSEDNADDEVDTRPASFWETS
# T1 sequence (Q9Y2I7 whole entry): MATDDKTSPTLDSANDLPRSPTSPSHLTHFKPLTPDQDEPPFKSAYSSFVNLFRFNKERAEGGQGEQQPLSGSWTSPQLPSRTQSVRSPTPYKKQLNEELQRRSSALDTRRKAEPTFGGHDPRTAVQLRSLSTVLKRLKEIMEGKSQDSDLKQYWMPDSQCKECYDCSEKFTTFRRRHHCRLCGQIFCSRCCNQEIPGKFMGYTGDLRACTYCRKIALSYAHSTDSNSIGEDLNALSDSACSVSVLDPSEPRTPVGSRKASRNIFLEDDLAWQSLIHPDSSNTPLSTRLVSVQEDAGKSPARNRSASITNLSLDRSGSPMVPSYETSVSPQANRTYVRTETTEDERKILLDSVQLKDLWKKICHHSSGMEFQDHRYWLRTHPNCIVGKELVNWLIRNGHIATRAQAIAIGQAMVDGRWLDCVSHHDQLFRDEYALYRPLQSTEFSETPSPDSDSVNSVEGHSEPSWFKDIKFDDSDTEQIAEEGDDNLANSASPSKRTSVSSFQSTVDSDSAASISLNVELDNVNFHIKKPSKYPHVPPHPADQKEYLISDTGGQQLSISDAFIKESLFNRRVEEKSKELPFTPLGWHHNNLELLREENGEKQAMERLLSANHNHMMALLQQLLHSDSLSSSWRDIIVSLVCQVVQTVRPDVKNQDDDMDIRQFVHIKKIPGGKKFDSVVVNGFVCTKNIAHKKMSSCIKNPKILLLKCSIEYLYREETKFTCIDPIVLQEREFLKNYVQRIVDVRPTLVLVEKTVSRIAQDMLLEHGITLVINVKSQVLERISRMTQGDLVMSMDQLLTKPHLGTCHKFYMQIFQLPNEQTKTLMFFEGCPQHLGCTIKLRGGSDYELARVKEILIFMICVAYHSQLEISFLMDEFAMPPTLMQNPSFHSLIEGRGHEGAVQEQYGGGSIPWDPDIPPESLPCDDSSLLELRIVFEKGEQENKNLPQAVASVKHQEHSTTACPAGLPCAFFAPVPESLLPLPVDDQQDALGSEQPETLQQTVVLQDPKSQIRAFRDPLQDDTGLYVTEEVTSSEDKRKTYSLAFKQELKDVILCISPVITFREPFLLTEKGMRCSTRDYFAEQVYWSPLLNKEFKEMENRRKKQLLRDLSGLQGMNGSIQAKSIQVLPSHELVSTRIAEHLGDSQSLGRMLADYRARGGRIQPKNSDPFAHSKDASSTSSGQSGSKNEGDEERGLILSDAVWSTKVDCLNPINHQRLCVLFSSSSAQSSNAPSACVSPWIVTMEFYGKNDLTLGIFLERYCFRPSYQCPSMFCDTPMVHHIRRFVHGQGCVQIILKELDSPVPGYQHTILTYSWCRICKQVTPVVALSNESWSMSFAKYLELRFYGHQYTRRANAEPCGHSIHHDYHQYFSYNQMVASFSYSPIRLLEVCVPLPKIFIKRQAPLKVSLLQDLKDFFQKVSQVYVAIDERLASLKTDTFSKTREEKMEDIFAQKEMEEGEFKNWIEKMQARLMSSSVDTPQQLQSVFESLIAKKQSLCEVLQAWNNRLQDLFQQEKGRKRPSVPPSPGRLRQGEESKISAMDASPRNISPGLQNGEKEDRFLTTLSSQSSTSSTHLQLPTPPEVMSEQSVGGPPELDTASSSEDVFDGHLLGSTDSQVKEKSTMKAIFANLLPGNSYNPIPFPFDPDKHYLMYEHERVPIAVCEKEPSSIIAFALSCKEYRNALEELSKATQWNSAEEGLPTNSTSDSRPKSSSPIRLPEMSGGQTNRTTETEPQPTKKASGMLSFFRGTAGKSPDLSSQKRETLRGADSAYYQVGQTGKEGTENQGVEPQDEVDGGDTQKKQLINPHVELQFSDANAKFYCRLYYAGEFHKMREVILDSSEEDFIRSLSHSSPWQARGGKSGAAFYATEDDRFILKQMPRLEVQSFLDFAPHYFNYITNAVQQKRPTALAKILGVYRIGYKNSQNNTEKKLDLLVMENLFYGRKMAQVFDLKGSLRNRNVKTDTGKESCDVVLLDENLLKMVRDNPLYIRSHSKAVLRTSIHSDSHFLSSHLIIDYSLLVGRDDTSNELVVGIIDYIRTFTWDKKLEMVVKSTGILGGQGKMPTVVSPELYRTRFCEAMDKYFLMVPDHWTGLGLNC
smiles,measurement,setting,value
CO[C@H]1C[C@@H]2CC[C@@H](C)[C@@](O)(O2)C(=O)C(=O)N2CCCC[C@H]2C(=O)O[C@H]([C@H](C)C[C@@H]2CC[C@@H](OC(=O)NCCOCCOCCOCCOCCOCCOCCOCCOCCC(=O)NCCS(=O)(=O)c3ccc(C(=O)N4CCOc5ccc(-c6ccc(N)nc6)cc5C4)c(C)c3F)[C@H](OC)C2)C[C@@H](O)[C@H](C)/C=C(\C)[C@@H](O)[C@@H](OC)C(=O)[C@H](C)C[C@H](C)/C=C/C=C/C=C/1C [compound 40],KiNativ Kinase Panel Data,PIP5K3,19.9
same,KiNativ Kinase Panel Data,"MARK2, MARK3; DLKAENLLLDADMNIK",15.7
same,KiNativ Kinase Panel Data,PITSLRE,13.7
same,KiNativ Kinase Panel Data,"ABL, ARG; Activation Loop, LMTGDTYTAHAGAKFPIK",16.3
same,KiNativ Kinase Panel Data,"ABL, ARG; Lys1, YSLTVAVKTLKEDTMEVEEFLK",-25.3
same,KiNativ Kinase Panel Data,MET,6.3
same,IC50,"PI3K-BETA; Nanosyn, with FKBP12",> 1000 nM
same,IC50,"mTORC1; read-out: mTORC1 IC50, Nanosyn, with FKBP12",0.473 nM
same,IC50,"PI3K-ALPHA; Nanosyn, with FKBP12, read-out: PI3K-ALPHA IC50",> 1000 nM
same,IC50,"PI3K-GAMMA; Nanosyn, with FKBP12, read-out: PI3K-GAMMA IC50",> 1000 nM
same,IC50,"PI3K-DELTA; Nanosyn, with FKBP12, read-out: PI3K-DELTA IC50",> 1000 nM
same,KiNativ Kinase Panel Data,"MAPKAPK2, MAPKAPK3; DVKPENLLYTSK",-27.1
same,KiNativ Kinase Panel Data,"LATS2; Lys1, VDTHALYAMKTLR",-0.8
same,KiNativ Kinase Panel Data,"LATS2; Lys2, DIKPDNILIDLDGHIK",-1.4
same,KiNativ Kinase Panel Data,"KSR1, KSR2; SKNVFYDNGK",-20.7
same,KiNativ Kinase Panel Data,LOK,-19.4
CO[C@H]1C[C@@H]2CC[C@@H](C)[C@@](O)(O2)C(=O)C(=O)N2CCCC[C@H]2C(=O)O[C@H]([C@H](C)C[C@@H]2CC[C@@H](OC(=O)NCCOCCOCCOCCOCCOCCOCCOCCOCCC(=O)N3CCc4cc(Cn5nc(-c6ccc7oc(N)nc7c6)c6c(N)ncnc65)ccc4C3)[C@H](OC)C2)C[C@@H](O)[C@H](C)/C=C(\C)[C@@H](O)[C@@H](OC)C(=O)[C@H](C)C[C@H](C)/C=C/C=C/C=C/1C [compound 38],KiNativ Kinase Panel Data,PIP5K3,0.8
same,KiNativ Kinase Panel Data,"MARK2, MARK3; […]",-0.4
same,KiNativ Kinase Panel Data,PITSLRE,17.8
same,KiNativ Kinase Panel Data,"ABL, ARG; Activation Loop, […]",-3.4
same,KiNativ Kinase Panel Data,"ABL, ARG; Lys1, […]",-1.3
same,KiNativ Kinase Panel Data,MET,3.9
same,IC50,PI3K-BETA,> 1000 nM
same,IC50,mTORC1,0.774 nM
same,IC50,PI3K-ALPHA,41.2 nM
same,IC50,PI3K-GAMMA,> 1000 nM
same,IC50,PI3K-DELTA,95 nM
same,KiNativ Kinase Panel Data,"MAPKAPK2, MAPKAPK3; […]",-19.9
same,KiNativ Kinase Panel Data,"LATS2; Lys1, […]",-20.5
same,KiNativ Kinase Panel Data,"LATS2; Lys2, DIKPDNILIDLDGHIK",22.9
same,KiNativ Kinase Panel Data,"KSR1, KSR2; […]",-19.2
same,KiNativ Kinase Panel Data,LOK,-65.4
